Values joined by “and” are separate entries in the source; they are usually repeats but may differ in a detail not shown here. Equal entries are not always repeated.
Tests used:
E. coli (ATCC 29425) = test: Live/dead flow cytometry biocidal assay with samples UVA pre-irradiated before bacterial exposure, Example 2; assay type: cell-based, Escherichia coli; details: for biocidal activity vs. E. coli after pre-irradiation: then 30 minutes UVA with bacteria
Method: (§1) All media and buffers were prepared using deionized water with a resistivity exceeding 18 MΩ*cm. Nutrient Broth 234000 (Difco) was prepared according to manufacturer's instructions, and Nutrient Agar was prepared upon the addition of 8 g/L Bacto agar (Difco). Both S. aureus (ATCC 25923) and E. coli (ATCC 29425) were grown from glycerol-preserved stock. The frozen stock aliquots were generated from first-generation cultures of the original ATCC lyophilate, which were grown in Nutrient Broth containing 20% glycerol, and subsequently stored at −70° C. The cells were grown by inoculating the glycerol stock on Difco Nutrient Agar for 24 hours at 37° Celsius. For biocidal testing, S. aureus and E. coli cells were scraped off the agar plate with a flame-sterilized wire and transferred to nutrient broth. Cells were incubated in an Orbital Incubator Shaker (American Instruments, Lafayette, Calif.) at 37° Celsius in nutrient broth with rapid shaking (250 rpm) for 18 hours. Following the 18-hour incubation period, cells were separated from the nutrient broth by two 15-minute centrifugations at 4,400 rpm, each of which was followed by removal of the supernatant and re-suspension in 30 mL 0.85% NaCl.
(§2) Flow cytometry was implemented to determine the cell concentration of the 0.85% NaCl-suspended bacterial stock solutions. An Accuri C6 flow cytometer (Becton Dickinson, Franklin Lakes, N.J.) equipped with a blue laser that excites at 488 nm was utilized. Two filters were used: a green fluorescence filter (FL-1: 530 nm) and a red fluorescence filter (FL-3: 670 nm long pass). Two thresholds were used, a primary threshold and a secondary threshold. […] Flow cytometer core size in all experiments was 10 μm, with a flow rate of 14 μL/minute. Using these settings, 20 μL of un-stained stock solution was sufficient for identifying the stock concentration of cells.
For biocidal testing, the stock solution was either diluted or concentrated to 2×10^7 cells/mL. Equal volumes of the sample and bacterial solution were added to glass tubes prior to analysis. Cells were stained with 5 mM SYTO 21 (live stain; Life Technologies, Grand Island, N.Y.) and […] Propidium iodide (dead stain; Life Technologies, Grand Island, N.Y.) for 15-30 minutes prior to flow cytometry anaylsis. An example of the flow cytometry gating scheme for E. coli is shown below, in FIG. 14. […]
(§3) The solid compound OPE 1, as a dichloride salt, was dissolved in filtered water with a resistivity of 18 MΩ*cm to a final concentration of 10 μM. […] Progress of the photolysis was monitored by UV-visible absorption spectroscopy with a Molecular Devices Spectramax M5 spectrophotometer (Molecular Devices, Sunnyvale, Calif.). […]

[1] = UVA photolysis under the same conditions, without surfactant; cited from earlier work
S. aureus [2] = test: Confocal microscopy of bacteria irradiated with UVA for 15 minutes, Example 2; assay type: cell-based, Staphylococcus aureus; details: UVA light for 15 minutes, FIG. 22
Method: The solid compound OPE 1, as a dichloride salt, was dissolved in filtered water with a resistivity of 18 MΩ*cm to a final concentration of 10 μM. The solution was then exposed to UVA radiation via a Luzchem LZC-ORG photoreactor (Luzchem Research, Ontario, Canada) in a quartz tube or cuvette. This photoreactor was configured with 10 LZC-UVA lamps (>5.3 mW-cm^−2 over 316-400 nm, Luzchem Research, Ontario, Canada) with a fan-powered exhaust to keep a stable temperature and a carousel for homogeneous irradiation of samples. Progress of the photolysis was monitored by UV-visible absorption spectroscopy with a Molecular Devices Spectramax M5 spectrophotometer (Molecular Devices, Sunnyvale, Calif.). Sodium dodecyl sulfate (SDS) was obtained from Sigma Aldrich. For the OPE 1-SDS complexes, 10 μM OPE 1 was mixed with 40 μM SDS, 0.24% of the critical micelle concentration (CMC). S. aureus samples were exposed to a OPE 1-SDS complex where the concentration of SDS was 0.33 mM, as they were much more resilient to killing caused by SDS. Samples were irradiated for 0, 30, 60, and 120 minutes prior to exposure to bacteria. Once exposed to OPE 1 or 1-SDS complex, E. coli and S. aureus samples were irradiated with UVA in the photoreactor for 30 minutes and 15 minutes, respectively.

S. aureus (ATCC 25923) = test: Live/dead flow cytometry biocidal assay with samples UVA pre-irradiated before bacterial exposure, Example 2; assay type: cell-based, Staphylococcus aureus; details: for biocidal activity vs. S. aureus after pre-irradiation: then 15 minutes UVA with bacteria
Method: as §1
as §2, with “Using these settings, 20 μL of un-stained stock solution was sufficient for identifying the stock concentration of cells.” left out
as §3

E. coli [3] = test: Confocal fluorescence microscopy of exposed bacteria, Example 2; assay type: cell-based, Escherichia coli; details: UVA, versus untreated cells, FIG. 20
[4] = system: Staphylococcus aureus (ATCC 10832); test: Live/dead flow cytometry biocidal assay, Example 1; assay type: cell-based; details: 60 minutes, 10 μM OPE
Method: All media and buffers were prepared with deionized water with a resistivity of at least 18 MΩ cm. Nutrient broth 234000 (Difco) was prepared according to manufacturer's instructions. Nutrient agar was prepared upon the addition of 8 g/L bacto agar (Difco). Staphylococcus aureus (ATCC 10832) and Escherichia coli (ATCC 29425) were both grown from glycerol-preserved stock which originated from first-generation cultures of original ATCC lyophilates grown in nutrient broth (containing 20% glycerol) and subsequently stored at −70° C. Cells of the aforementioned strains were grown upon the inoculation of glycerol stock on Difco nutrient agar at 37° C. for 24 hours. […]
The bacterial stock solution was either diluted or concentrated to 2×10^7 cells/mL. […] Biocidal activity under UVA irradiation was determined using a Luzchem LZC-ORG photoreactor (Luzchem Research, Ontario, Canada). […]
Flow cytometry gating and analysis were carried out as performed in previous studies of biocidal activity of OPEs (see Z. Malik, J. Hanania, Y. Nitzan New trends in photobiology bactericidal effects of photoactivated porphyrins—An alternative approach to antimicrobial drugs, Journal of Photochemistry and Photobiology B: Biology 1990, 5 (3-4), 281-293). […] 100,000 events were recorded in each sample. […]

[5] = system: Staphylococcus aureus (ATCC 10832); test: Biocidal testing by standard plating (colony counts relative to UVA negative control), Example 1; assay type: cell-based; details: FIG. 4
Method: (§4) All media and buffers were prepared with deionized water with a resistivity of at least 18 MΩ cm. Nutrient broth 234000 (Difco) was prepared according to manufacturer's instructions. Nutrient agar was prepared upon the addition of 8 g/L bacto agar (Difco). Staphylococcus aureus (ATCC 10832) and Escherichia coli (ATCC 29425) were both grown from glycerol-preserved stock which originated from first-generation cultures of original ATCC lyophilates grown in nutrient broth (containing 20% glycerol) and subsequently stored at −70° C. Cells of the aforementioned strains were grown upon the inoculation of glycerol stock on Difco nutrient agar at 37° C. for 24 hours. Cell culture preparation for biocidal testing entailed scraping S. aureus or E. coli colonies off their agar plates and transferring them to nutrient broth for growth. Cells were then incubated in an Orbital Incubator Shaker (American Instruments, Lafayette, Calif.) for 18 h at 37° C. with rapid shaking (250 rpm). Following the incubation period, cells were washed by two 15 min centrifugations at 4,400 rpm; in each case, supernatant was replaced by 30 mL of 0.85% NaCl following pellet formation.
(§5) The bacterial stock solution was either diluted or concentrated to 2×10^7 cells/mL. Samples were diluted by the addition of 0.85% NaCl, while concentrating the sample entailed centrifugation to pellet the cells, followed by removal of the necessary amount of supernatant and subsequent resuspension of the pellet by vortexing. 500 μL of bacterial solution was added to glass vials with 500 μL of sample solution to reach a final volume of 1 mL prior to analysis. Samples tested contained 10 μM OPE, 40 μM TTAB, or both 10 μM OPE and 40 μM TTAB. Biocidal activity under UVA irradiation was determined using a Luzchem LZC-ORG photoreactor (Luzchem Research, Ontario, Canada). This photoreactor was configured with 10 UVA lamps (0.975 mW/cm^2 over 316-400 nm) with a fan-powered exhaust to keep a stable temperature of 28° C. and a rotating carousel for homogeneous irradiation of samples. Samples exposed in the dark were kept at room temperature, 25° C. 70% Ethanol was used as a positive control, and a 60 minute UVA-irradiated sample of bacteria was used as a negative control.
(§6) The results of the live/dead assay were verified by confocal fluorescence microscopy using a Zeiss Confocal microscope with an Ar laser (488 nm) and a HeNe laser ([…]) as excitation sources. Standard plating techniques were utilized to validate flow cytometry data. This entailed pipetting and spreading 50 μL aliquots of diluted, unstained sample, onto nutrient agar plates. The plates were incubated at 37° C. for 18 hours, colonies were counted, and viabilities were calculated relative to the UVA negative control. […]

[6] = in water; cited from earlier work
[7] = system: Escherichia coli (ATCC 29425); test: Biocidal testing by standard plating (colony counts relative to UVA negative control), Example 1; assay type: cell-based; details: 40 μM TTAB alone, one hour of exposure, FIG. 5
Method: as §4, §5, §6

E. coli [8] = details: reported value, against E. coli; cited from earlier work
S. aureus [9] = details: reported value, against S. aureus; cited from earlier work
[10] = 10 μM OPE 1, 30 minutes of UVA irradiation prior to bacterial exposure
[11] = 10 μM OPE 1, 2 hours of UVA pre-exposure
[12] = 0.33 mM SDS alone, control experiment

## C[N+](C)(C)CCOc1ccc(C#Cc2ccc(C#Cc3ccc(OCC[N+](C)(C)C)cc3)cc2)cc1 [OPE 1]
E. coli (ATCC 29425); [10]
  biocidal activity vs. E. coli after pre-irradiation: significant drop in biocidal activity
E. coli (ATCC 29425); [11]
  biocidal activity vs. E. coli after pre-irradiation: nearly lost
[1]
  time of photolysis until absorbance diminished and fluorescence completely quenched: ≤ 2 min
S. aureus [2]
  clustering of S. Aureus (stress response): clusters of large numbers of cells
S. aureus (ATCC 25923); [10]
  biocidal activity vs. S. aureus after pre-irradiation: significant drop in biocidal activity
S. aureus (ATCC 25923); [11]
  biocidal activity vs. S. aureus after pre-irradiation: entirely lost
E. coli [3]
  filamentous growth of E. coli (stress response): more likely to undergo filamentous growth than untreated cells

## O=S(=O)(O)CCCOc1ccc(C#Cc2ccc(C#Cc3ccc(OCCCS(=O)(=O)O)cc3)cc2)cc1 [OPE]
[4]; in the dark
  S. aureus killed (immediate killing by flow cytometry): 23.2%
[4]; under UVA irradiation
  S. aureus killed (immediate killing by flow cytometry): 35.1%
[5]; in the dark, 60 minutes, 10 μM OPE (complex: plus 40 μM TTAB)
  S. aureus killed: 41.3%
[5]; in the light (UVA), 60 minutes, 10 μM OPE (complex: plus 40 μM TTAB)
  S. aureus killed: 68.1%

## CCCCCCCCCCCCOS(=O)(=O)[O-].[Na+] [SDS, sodium dodecyl sulfate]
E. coli (ATCC 29425); 40 μM SDS alone, control experiment
  E. coli cells killed: ~40%
E. coli (ATCC 29425); [12]
  effect on E. coli: significant killing
[6]
  critical micelle concentration: ~8.3 mM
S. aureus (ATCC 25923); [12]
  effect on S. aureus: viable

## CCCCCCCCCCCCCC[N+](C)(C)C.[Br-] [TTAB, tetradecyl trimethylammonium bromide]
[6]
  critical micelle concentration: 4.3 mM
[7]
  E. coli killed: 56.1% and 56%
[5]; 40 μM TTAB alone, one hour of exposure
  S. aureus killed: 8.7% and 9%
E. coli [8]
  minimum inhibitory concentration: 5 mM
S. aureus [9]
  minimum inhibitory concentration: 5 mM

Source: patent US9968698B2, “Charged singlet-oxygen sensitizers and oppositely-charged surfactants” (STC.UNM, priority 2013, dated 2018)
